# In patent US4034082A, “Method to prevent reproduction in warm-blooded female animals with nonapeptides” (Abbott Laboratories, priority 1976, dated 1977):
# Columns and labels:
# [1] = test system: Adult, female rats, mated; experiment: Prevention of implantation/pregnancy in mated rats (Example 2); format: in vivo, rat; conditions: 10 μg s.c. b.i.d., day 3 to day 6 of gestation; for fate of the implantation sites: sacrificed day 13; for animals having implantation sites: sacrificed day 13, group of 9 (control: 8 of 9 pregnant); for total implantation sites found in the uteri of the group: sacrificed day 13, groups of 8 or 9 (control: 87 implantation and 3 resorbed sites)
# Experimental: Adult, female rats weighing an average of 200 g. were mated and then randomly divided into groups of 8 and 9 rats. In all animals, mating was determined by the presence of sperms in the vaginal opening. In all animals, subcutaneous treatment was started on day 3 of gestation and continued until day 6 with 10 μg of the above compound, b.i.d. in an aqueous vehicle containing 0.1% bovine serum albumin and 0.9% sodium chloride at a concentration of 0.02% (wt./vol.). All animals were sacrificed on day 13 and checked for toxic manifestations, fetuses or viable implants.
# In the first of four groups (control), the animals received the above vehicle only. […] Upon sacrifice, a total of 87 implantation and 3 resorbed sites was found in the uteri.
# [2] = test system: Pregnant rabbits; experiment: Fetal viability in pregnant rabbits after a single injection (Example 4); format: in vivo, rabbit; conditions: single s.c. injection of 12.5 μg/kg on day 14 of gestation, sacrificed day 28 (control: 7 of 8 implants viable)
# Experimental: Pregnant rabbits were given single subcutaneous injections of 12.5 μg/kg of the compounds used in Example 2 by the route and vehicle shown there on day 14 of gestation. […] In all instances, the animals were sacrificed on day 28 of gestation.
# [3] = test system: rats; experiment: Reversal of the anti-implantation effect by exogenous estradiol in treated rats; format: in vivo, rat; conditions: rats treated days 2-6 of gestation, estradiol 0.1 μg s.c. in sesame oil on days 4 and 5; for animals in which implantation takes place when estradiol is co-administered: of 8 animals
SMILES,fate of the implantation sites [1],animals having implantation sites [1],total implantation sites found in the uteri of the group [1],viable fetuses per implants (average) [2],viability of embryos when estradiol is co-administered [3],animals in which implantation takes place when estradiol is co-administered [3],"animals showing no signs of implantation ([1]; sacrificed day 13, group of 9)"
CCNC(=O)[C@@H]1CCCN1C(=O)[C@H](CCCNC(=N)N)NC(=O)[C@H](CC(C)C)NC(=O)[C@@H](Cc1ccc(O)cc1)NC(=O)[C@H](Cc1ccc(O)cc1)NC(=O)[C@H](CO)NC(=O)[C@H](Cc1c[nH]c2ccccc12)NC(=O)[C@H](Cc1c[nH]cn1)NC(=O)[C@@H]1CCC(=O)N1 [Compound B],all 22 counted sites had been resorbed,2,22,one viable fetus per 7 implants,substantially only viable embryos,3,
CCNC(=O)[C@@H]1CCCN1C(=O)[C@H](CCCNC(=N)N)NC(=O)[C@H](CC(C)C)NC(=O)[C@@H](Cc1ccccc1)NC(=O)[C@H](Cc1ccc(O)cc1)NC(=O)[C@H](CO)NC(=O)[C@H](Cc1c[nH]c2ccccc12)NC(=O)[C@H](Cc1c[nH]cn1)NC(=O)[C@@H]1CCC(=O)N1 [Compound C],resorbed,,single,one viable fetus per 7 implants,substantially only viable embryos,3,
CCNC(=O)[C@@H]1CCCN1C(=O)[C@H](CCCNC(=N)N)NC(=O)[C@H](CC(C)C)NC(=O)[C@@H](Cc1c[nH]c2ccccc12)NC(=O)[C@H](Cc1ccc(O)cc1)NC(=O)[C@H](CO)NC(=O)[C@H](Cc1c[nH]c2ccccc12)NC(=O)[C@H](Cc1c[nH]cn1)NC(=O)[C@@H]1CCC(=O)N1 [Compound A],all resorbed,two,25,one viable fetus per 7 implants,substantially only viable embryos,3,Seven
